Data on six compounds can be found in patent publication US7960368B2, “Bismethylene-17A carbolactones and related uses” (Everstra, Inc., priority 2008, dated 2011).

Data set [1] deals with T1, recombinant human progesterone receptor B (hPR-B) (Homo sapiens, UniProt P06401).
T1 sequence (P06401 1-933): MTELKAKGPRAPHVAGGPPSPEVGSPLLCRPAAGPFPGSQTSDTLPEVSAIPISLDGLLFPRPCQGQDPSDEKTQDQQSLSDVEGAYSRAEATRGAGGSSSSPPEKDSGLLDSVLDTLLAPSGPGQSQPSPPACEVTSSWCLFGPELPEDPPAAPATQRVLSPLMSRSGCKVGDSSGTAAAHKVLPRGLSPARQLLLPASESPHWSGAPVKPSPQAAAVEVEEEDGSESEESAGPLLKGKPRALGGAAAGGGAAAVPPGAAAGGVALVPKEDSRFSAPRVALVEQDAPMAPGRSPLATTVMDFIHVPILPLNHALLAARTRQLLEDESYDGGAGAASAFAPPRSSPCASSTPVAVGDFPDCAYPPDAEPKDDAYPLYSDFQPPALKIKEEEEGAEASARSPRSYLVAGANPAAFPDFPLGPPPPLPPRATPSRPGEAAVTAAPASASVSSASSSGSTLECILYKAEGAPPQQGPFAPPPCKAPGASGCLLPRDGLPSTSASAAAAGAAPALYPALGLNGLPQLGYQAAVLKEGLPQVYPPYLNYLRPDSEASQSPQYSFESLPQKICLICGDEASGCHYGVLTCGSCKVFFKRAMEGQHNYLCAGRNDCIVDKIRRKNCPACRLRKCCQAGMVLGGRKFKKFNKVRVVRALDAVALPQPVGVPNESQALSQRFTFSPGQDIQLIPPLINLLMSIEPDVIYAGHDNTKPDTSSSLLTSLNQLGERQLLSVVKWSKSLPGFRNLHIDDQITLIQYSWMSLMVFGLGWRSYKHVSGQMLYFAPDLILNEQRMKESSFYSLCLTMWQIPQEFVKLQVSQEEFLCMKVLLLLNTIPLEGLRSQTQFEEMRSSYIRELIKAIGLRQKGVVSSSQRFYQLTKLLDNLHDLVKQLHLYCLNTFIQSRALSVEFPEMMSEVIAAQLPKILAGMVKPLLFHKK
Kind of data set: Progestin receptor binding assay, hPR-B. The following applies: for IC50: competition with [3H]-progesterone; for hPR-B RBA: relative binding affinity, progesterone = 100. On the procedure:
(§1) “No compound” controls contain DMSO/binding buffer without compound. The plates are incubated overnight at 4° C., after which solutions in the plates are aspirated and washed six times with PBS, followed by the addition of MicroScint-20 scintillation cocktail (Packard). The plates are sealed using transparent sealing tape and counted for radioactivity by use of the scintillation counter.

The target in data set [2] is T2, recombinant human progesterone receptor A (hPR-A) (Homo sapiens, UniProt P06401).
T2 sequence (P06401 1-769 isoform P06401-2): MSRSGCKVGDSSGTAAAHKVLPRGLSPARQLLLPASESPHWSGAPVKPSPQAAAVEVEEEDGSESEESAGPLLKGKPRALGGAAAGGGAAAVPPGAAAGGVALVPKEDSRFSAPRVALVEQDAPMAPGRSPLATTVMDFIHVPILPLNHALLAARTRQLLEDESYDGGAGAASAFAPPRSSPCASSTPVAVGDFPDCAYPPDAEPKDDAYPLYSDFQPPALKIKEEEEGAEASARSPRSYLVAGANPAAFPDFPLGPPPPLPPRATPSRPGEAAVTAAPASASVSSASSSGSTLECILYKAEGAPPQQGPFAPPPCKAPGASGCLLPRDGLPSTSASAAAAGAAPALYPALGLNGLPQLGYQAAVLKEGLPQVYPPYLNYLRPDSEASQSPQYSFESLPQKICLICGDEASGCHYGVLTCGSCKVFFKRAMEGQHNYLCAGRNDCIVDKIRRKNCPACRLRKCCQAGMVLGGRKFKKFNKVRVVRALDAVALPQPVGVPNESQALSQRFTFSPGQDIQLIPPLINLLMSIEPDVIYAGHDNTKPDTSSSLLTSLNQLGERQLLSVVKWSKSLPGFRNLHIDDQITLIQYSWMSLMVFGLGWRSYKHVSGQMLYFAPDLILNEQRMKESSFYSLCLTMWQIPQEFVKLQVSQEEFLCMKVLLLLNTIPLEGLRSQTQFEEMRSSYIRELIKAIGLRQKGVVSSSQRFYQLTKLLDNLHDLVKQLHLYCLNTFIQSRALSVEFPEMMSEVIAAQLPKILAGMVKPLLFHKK
The data set is described as follows: Progestin receptor binding assay, hPR-A. The following applies: for IC50: competition with [3H]-progesterone; for hPR-A RBA: relative binding affinity, progesterone = 100. On the procedure:
as §1

Data set [3] addresses T3, recombinant human glucocorticoid receptor (rhGR) (Homo sapiens, UniProt P04150).
T3 sequence (P04150 1-777): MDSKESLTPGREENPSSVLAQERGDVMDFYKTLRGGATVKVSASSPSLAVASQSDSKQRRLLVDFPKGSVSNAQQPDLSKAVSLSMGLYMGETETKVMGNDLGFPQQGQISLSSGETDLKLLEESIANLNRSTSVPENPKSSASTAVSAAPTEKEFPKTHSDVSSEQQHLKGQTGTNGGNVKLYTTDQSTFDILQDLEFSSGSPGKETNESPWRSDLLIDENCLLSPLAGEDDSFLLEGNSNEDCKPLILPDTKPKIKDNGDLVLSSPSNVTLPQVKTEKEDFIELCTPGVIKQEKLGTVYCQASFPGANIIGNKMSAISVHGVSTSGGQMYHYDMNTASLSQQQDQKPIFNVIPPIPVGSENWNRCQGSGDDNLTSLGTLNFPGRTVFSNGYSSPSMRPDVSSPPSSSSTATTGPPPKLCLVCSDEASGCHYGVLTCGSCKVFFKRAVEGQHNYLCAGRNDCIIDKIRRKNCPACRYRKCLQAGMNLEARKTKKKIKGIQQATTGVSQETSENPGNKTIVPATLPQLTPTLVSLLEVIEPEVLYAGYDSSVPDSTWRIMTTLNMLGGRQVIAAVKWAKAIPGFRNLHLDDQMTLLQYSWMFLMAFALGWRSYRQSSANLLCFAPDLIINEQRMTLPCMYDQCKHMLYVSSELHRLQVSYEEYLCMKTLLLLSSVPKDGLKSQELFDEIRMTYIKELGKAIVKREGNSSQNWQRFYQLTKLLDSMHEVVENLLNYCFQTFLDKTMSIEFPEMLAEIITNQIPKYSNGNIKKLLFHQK
Kind of data set: Glucocorticoid receptor binding assay. The conditions noted are these: hGR IC50, competition with 10 nM [3H]dexamethasone; superscript marks the assay run.
Description: DCC is added to the wells after incubation to separate bound and unbound radioligand using a repeater pipettor to reduce variability.
Recombinant human GR: 8.6 pmol/mg, 80 pmol/ml. • 2. KEM buffer (10 mM KPO4, pH 7.4, 0.1 mM EDTA, 20 mM Na2MoO4) • 3. KEMD buffer (KEM buffer+5 mM DTT, add DTT the day of assay) • 4. […] 5% Dextran-coated charcoal solution in DEM buffer B. Assay Method—Set Up on Ice. • 1. Dilute 4×10^−3 M CDB-3972 to 4×10^−5 M (40 μM) in KEMD for NSB. The final concentration will be 10 μM. • 2. Thaw the rhGR on ice. […] Dilute rhGR 1:5 (80 pmol/ml) to 16.0 pmol/ml in KEMD. At 25 μl/tube, the final concentration will be 400 fmol/tube in KEMD. • 3. Prepare KEMD containing 10% ethanol. Dilute the compounds to be assayed in KEMD containing 10% ethanol to the working concentrations specified in Table 3. • 4. Prepare a 40 nM solution [^3H]Dex in KEMD containing 10% ethanol. The final concentration will be 10 nM. • 5. Set up the assay in microplates. Use 3 wells for total counts (no receptor), 3 NSB, 6 total binding, and triplicate wells for each concentration of dex or CDB compound. […] Mix gently, and incubate overnight at 2-6° C.
The next morning, prechill the Jouan centrifuge with microplate rotor. Add 50 μl of 5% DCC in KEM to all but total counts using a repeater pipettor. Make sure the DCC is constantly mixed and thoroughly resuspended before adding to the wells. • 7. Mix gently in the cold room for 5 min on plate shaker. • 8. Centrifuge at 3,000 rpm in the Jouan centrifuge at 4° C. for 15 min. • 9. Keeping the plates on ice, pipet 100 μl of the supernatants into 24-well plates, add 1 ml of Microscint PS, and seal the plates. Pre-incubate the plates for 10 min in the counter, and count each well for 2 min in the TopCount.

For data set [4], the target named is T4, recombinant rat androgen receptor ligand binding domain (ARLBD) (Rattus norvegicus, UniProt P15207).
T4 sequence (P15207 651-882 limits assumed): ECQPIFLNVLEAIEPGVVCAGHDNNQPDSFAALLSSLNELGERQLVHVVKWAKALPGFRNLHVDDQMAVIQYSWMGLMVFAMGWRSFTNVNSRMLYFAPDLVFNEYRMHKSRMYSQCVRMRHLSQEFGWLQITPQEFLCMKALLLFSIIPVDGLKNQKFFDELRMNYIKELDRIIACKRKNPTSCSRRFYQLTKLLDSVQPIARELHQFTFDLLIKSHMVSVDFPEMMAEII
The data set is described as follows: Androgen receptor binding assay. The following applies: for IC50: superscript marks the assay run. On the procedure: The relative affinity of test substances for the androgen receptor was taken as a measure of androgen antagonist activity and of the potential for anti-androgen side effects. […] Different concentrations (e.g., 10 nM, 15 nM or 30 nM) of purified recombinant ARLBD are immobilized to an OptiPlate 96-well microtiter plate (Packard) via incubation at 4° C. in 100 μl/well PBS containing ARLBD. […] “No compound” controls contain DMSO/binding buffer without compound. The plates are incubated overnight at 4° C., after which solutions in the plates are aspirated and washed six times with PBS, followed by the addition of MicroScint-20 scintillation cocktail (Packard). The plates are sealed using transparent sealing tape and counted for radioactivity by use of the scintillation counter. The data thus obtained is used to determine the IC50 values and the relative binding affinity (“RBA”) of the androgen receptor for the test compound.

The conditions of data set [5]: acidic conditions such as the gastric environment; cited from earlier work.
The conditions of data set [6]: various pH values; cited from earlier work.
For data set [7] the following is noted: single entity tablet; cited from earlier work.
Setting [8] is: competition with 5 nM [3H]-R1881, read-out: ARLBD IC50.
[9] abbreviates: ARLBD IC50, competition with 5 nM [3H]-R1881.

Several values for one entry are separate records, joined by “and”; a condition that tells them apart may be missing. Equal values may be shown once. Read-outs that look alike come from different tables or passages of the source. Where only a bound is given, the exact number is not on record here.

With `C[C@]12C=CC(=O)C=C1C1(CC1)CC1C2CC[C@@]2(C)C1[C@@H]1CC1[C@@]21CCC(=O)O1` (stereo partly drawn) [Compound (IVb), 6,6-ethylene-15β,16β-methylene-3-oxo-17α-pregna-1,4-diene 21,17-carbolactone], the IC50 (commonly the concentration that inhibits the measured activity by half) was 15.4 nM in data set [1]; 13.8 nM in data set [2]; 87.9 nM and 121 nM in data set [3]; 101 nM and 108 nM in data set [4] (setting [8]). The “hPR-B RBA” value in data set [1] is recorded as 38%. Further, the “hPR-A RBA” value in data set [2] was 38%. Besides, the “ARLBD RBA” value in data set [4] was 5% and 4%.

For `C[C@]1(O)CC[C@H]2[C@@H]3CCC4=CC(=O)CCC4=C3C=C[C@@]21C` [Compound R1881, methyltrienolone, reference compound], the “ARLBD RBA” value in data set [4] (relative binding affinity, R1881 = 100, same assay run) came out at 100%.

Take `C[C@]12CCC(=O)C=C1[C@@H]1C[C@@H]1[C@H]1[C@@H]3[C@@H]4C[C@@H]4[C@@]4(CCC(=O)O4)[C@@]3(C)CC[C@@H]12` [Drospirenone, 6β,7β,15β,16β-dimethylene-3-oxo-17α-pregn-4-ene-21,17-carbolactone]: in data set [1], the “hPR-B RBA” value came out at 29%. Also, the “isomerization under acidic conditions” value in data set [5] was “undergo isomerization to a form that is inactive”. In data set [6], the solubility in water entry is given as “sparingly soluble”. Moreover, the “hPR-A RBA” value in data set [2] is reported as 23%. For the same compound, the absolute bioavailability result in data set [7] was “about 76%”.

As to `C[C@@]12C(=CC(=O)C3C[C@@H]31)C1(CC1)CC1C2CC[C@@]2(C)C1[C@@H]1CC1[C@@]21CCC(=O)O1` (stereo partly drawn) [Compound (IVc), 1α,2α:15β,16β-Dimethylene-6,6-ethylene-3-oxo-17α-pregn-4-ene-21,17-carbolactone], the IC50 is 8.3 nM in data set [1]; 6.7 nM in data set [2]; 117 nM and 300 nM in data set [3]; 83.6 nM and 80.9 nM in data set [4] (setting [9]). The “hPR-B RBA” value in data set [1] is 71%. For the same compound, in data set [2], the “hPR-A RBA” value stood at 78%. The “ARLBD RBA” value in data set [4] is 7% and 5%.

As to `C[C@]12CCC(=O)C=C1C1(CC1)CC1C2CC[C@@]2(C)C1[C@@H]1CC1[C@@]21CCC(=O)O1` (stereo partly shown) [Compound (IVa)], the concentration for half-maximal inhibition (IC50) in data set [1] is 5.1 nM; in data set [2] it was 3.5 nM; in data set [3] it was 45.1 nM and 64 nM; in data set [4] (setting [9]), 28 nM and 17.7 nM. The “hPR-B RBA” value in data set [1] worked out at 116%. For the same compound, the “hPR-A RBA” value in data set [2] worked out at 149%. The “ARLBD RBA” value in data set [4] is 20% and 25%.

With `C[C@]12CC3(CC3)C(=O)C=C1[C@@H]1CC1C1C2CC[C@@]2(C)C1[C@@H]1CC1[C@@]21CCC(=O)O1` (stereo partly drawn) [Compound (IIIe), 2,2-Ethylene-6β,7β:15β,16β-dimethylene-3-oxo-17α-pregn-4-ene-21,17-carbolactone], the IC50 in data set [1], in data set [2], in data set [3] and in data set [4] (setting [8]) was over 1000 nM throughout. For the same compound, the “hPR-B RBA” value in data set [1] is listed as under 0.6%. In addition, the “hPR-A RBA” value in data set [2] was under 0.6%. Further, the “ARLBD RBA” value in data set [4] is <0.6% and <0.5%.
